Experimental findings from patent US20230167101A1, “NOVEL INHIBITORS OF HISTONE […] P300/CBP FOR CANCER THERAPY” (BAYLOR COLLEGE OF MEDICINE, priority 2020, published 2023) are described below.

The test system of experiment [1] is Kasumi-1 leukemia cells. Briefly: Cellular histone acetylation, Western blot. The class given is cell-based. The settings on record: Kasumi-1 cells, 12 h, 5 and 10 µM. As for the experimental part:
Kasumi-1 leukemia cells were treated with increasing concentrations of these compounds for 12 h. Histone was extracted and subjected to electrophoresis separation and Western blot staining to determine levels of acetylation at various lysine residues. […] H3K27 seems to be the most sensitive cellular substrate of p300 HAT. […] This might be due to different mode of inhibition or cell permeability for the two compounds.
About 10^6 Kasumi-1 cells per well were incubated with compound 11 at 0, 5 and 10 µM for 12 hours. Histone proteins were extracted using EpiQuik total histone extraction kit (Epigentek), according to the manufacturer’s protocol. Equal amounts of histones (2 µg) were separated on SDS-PAGE and transferred to PVDF membranes. The blots were probed with primary antibodies against H3K9Ac, H3K18Ac, H3K27Ac and H3 (Cell Signaling), followed by anti-rabbit IgG (Thermo Scientific) secondary antibodies.
(In general: A western blot detects proteins with antibodies after separation by electrophoresis.)

The target in experiment [2] is T1, Myst3 (Homo sapiens, UniProt Q92794).
T1 construct: made in house
T1 sequence (Q92794 whole entry): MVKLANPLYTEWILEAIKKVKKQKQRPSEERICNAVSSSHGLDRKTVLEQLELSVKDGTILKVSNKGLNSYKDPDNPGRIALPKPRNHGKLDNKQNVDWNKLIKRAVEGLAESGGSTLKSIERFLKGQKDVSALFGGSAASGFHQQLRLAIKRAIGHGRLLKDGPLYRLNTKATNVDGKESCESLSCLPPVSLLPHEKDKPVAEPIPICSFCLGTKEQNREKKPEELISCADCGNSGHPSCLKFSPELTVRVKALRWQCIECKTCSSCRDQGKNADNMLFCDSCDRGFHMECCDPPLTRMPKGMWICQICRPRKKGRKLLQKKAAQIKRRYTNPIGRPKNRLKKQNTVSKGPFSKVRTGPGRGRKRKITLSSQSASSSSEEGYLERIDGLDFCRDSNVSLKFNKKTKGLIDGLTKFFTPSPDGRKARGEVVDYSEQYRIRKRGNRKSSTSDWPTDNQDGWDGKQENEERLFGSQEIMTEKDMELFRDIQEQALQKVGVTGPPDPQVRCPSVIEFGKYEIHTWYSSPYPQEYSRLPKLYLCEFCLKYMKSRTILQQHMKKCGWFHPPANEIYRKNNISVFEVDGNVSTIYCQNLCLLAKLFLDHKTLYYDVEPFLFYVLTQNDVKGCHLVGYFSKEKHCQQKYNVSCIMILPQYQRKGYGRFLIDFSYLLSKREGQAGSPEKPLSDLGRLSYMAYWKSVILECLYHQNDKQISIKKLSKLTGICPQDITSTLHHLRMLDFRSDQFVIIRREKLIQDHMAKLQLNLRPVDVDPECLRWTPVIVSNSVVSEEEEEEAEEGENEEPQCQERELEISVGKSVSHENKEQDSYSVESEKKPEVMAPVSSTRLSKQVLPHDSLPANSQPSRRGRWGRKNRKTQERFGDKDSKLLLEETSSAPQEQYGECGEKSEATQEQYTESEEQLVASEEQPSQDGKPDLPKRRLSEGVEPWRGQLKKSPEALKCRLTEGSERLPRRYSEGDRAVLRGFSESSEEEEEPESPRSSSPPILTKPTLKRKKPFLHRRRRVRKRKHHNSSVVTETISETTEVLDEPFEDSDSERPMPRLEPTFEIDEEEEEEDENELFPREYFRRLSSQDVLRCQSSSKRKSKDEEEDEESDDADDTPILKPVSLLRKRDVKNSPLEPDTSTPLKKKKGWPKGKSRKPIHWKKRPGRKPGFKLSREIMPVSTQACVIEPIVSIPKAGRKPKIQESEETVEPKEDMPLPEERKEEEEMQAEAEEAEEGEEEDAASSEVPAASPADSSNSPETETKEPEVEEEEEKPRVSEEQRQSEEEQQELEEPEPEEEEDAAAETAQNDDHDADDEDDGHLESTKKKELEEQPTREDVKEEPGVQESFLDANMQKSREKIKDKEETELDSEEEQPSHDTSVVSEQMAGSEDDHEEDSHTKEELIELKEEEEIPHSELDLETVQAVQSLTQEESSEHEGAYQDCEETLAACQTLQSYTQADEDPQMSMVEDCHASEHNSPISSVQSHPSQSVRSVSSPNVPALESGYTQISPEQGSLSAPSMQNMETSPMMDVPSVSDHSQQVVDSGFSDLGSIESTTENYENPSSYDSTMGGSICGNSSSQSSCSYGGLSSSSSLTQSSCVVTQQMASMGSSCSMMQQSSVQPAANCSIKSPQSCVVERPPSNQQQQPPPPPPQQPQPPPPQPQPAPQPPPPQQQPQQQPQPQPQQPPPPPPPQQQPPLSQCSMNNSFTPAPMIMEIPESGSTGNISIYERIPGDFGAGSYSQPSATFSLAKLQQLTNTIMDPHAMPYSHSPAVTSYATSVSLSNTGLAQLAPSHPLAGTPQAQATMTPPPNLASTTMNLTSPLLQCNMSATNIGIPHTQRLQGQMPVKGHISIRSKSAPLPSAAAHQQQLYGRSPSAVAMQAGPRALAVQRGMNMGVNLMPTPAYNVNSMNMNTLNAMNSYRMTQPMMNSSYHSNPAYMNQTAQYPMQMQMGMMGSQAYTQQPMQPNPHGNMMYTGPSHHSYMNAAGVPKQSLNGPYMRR
In words: Myst3 HAT inhibition assay. The class given is biochemical.

The subject of experiment [3] is MCF-7. Briefly: Cell growth inhibition, MCF-7. The class given is cell-based. The settings on record: read-out: EC50, antiproliferative activity. As for the experimental part: (§1) The anti-proliferation assays for non-breast cancer cells were done using a previously developed assay. In brief, for Kasumi-1 cells, […] were added into 96-well plates and cultured with increasing concentrations of a compound in RPMI-1640 medium supplemented with 20% fetal bovine serum and penicillin (100 U/mL) and streptomycin (100 µg/mL) at 37° C. in a 5% CO2 atmosphere with 100% humidity. For solid tumor cells, 10^5 cells per well were added into 96-well plates and cultured in Dulbecco’s Modified Eagle’s Medium (DMEM) supplemented with 10% fetal bovine serum and penicillin (100 U/mL) and streptomycin (100 µg/mL) overnight. Upon addition of increasing concentrations of a compound, cells were incubated for 5 days. Cell viability was assessed by using an XTT assay kit (Roche) for leukemia cells or an MTT assay (Sigma) for attachment cells. For the breast cancer MCF-7 cells, culture and inhibition assays were performed according to our previous methods in Ref. 25 and 26. Compound EC50 values were calculated from dose response curves using Prism 5.0.

Experiment [4] deals with ER+ breast cancer MCF-7 cells. In words: RNA sequencing / gene set enrichment analysis (GSEA). The class given is cell-based, human. To be noted: MCF-7, 6 µM, 48 h, with estradiol 10 nM. As for the experimental part: RNA sequencing was used to investigate how treatment with p300 HAT inhibitor 12 affects gene expression in ER^+ breast cancer MCF-7 cells. […] RNA sequencing data were mapped onto the human genome and gene expression profiles were determined and normalized. […] Gene set enrichment analysis (GSEA)(31) was used to analyze significant gene expression changes between these three groups of MCF-7 cells.
Upon starvation (culturing in phenol red-free DMEM medium with 10% charcoal treated FBS to remove hydrophobic hormones such as estrogens) for 7 days, MCF-7 cells were treated with the p300 inhibitor (6 µM) or DMSO control, in the presence or absence of (10 nM) estradiol (E2) for 48 hours. Total RNA was extracted using RNeasy Plus Mini Kit (Qiagen), according to the manufacturer’s instruction.
The RNA integrity for each sample was assessed with a RNA 6000 Nano chip on a 2100 Bioanalyzer (Agilent; Santa Clara, CA). The average RNA integrity score for the sample set was 6.48. Sequencing libraries were prepared using the TruSeq Stranded Total RNA Library Prep Kit (Illumina, Inc; San Diego, CA). Concisely, ribosomal RNA (rRNA) was depleted from total RNA where the remaining (ribo-depleted RNA) was purified, fragmented for 7.5 minutes, and primed for cDNA synthesis. […] The concentration of each library was determined by quantitative PCR (qPCR) by the KAPA Library Quantification Kit for Next Generation Sequencing (KAPA Biosystems; Woburn, MA).
Libraries were normalized to 50 nmol/L in 10 mM Tris-Cl, pH8.5 with 0.1% Tween 20 then pooled evenly. […] Sequencing-by-synthesis (SBS) was performed on a HiSeq 2500 utilizing v2 chemistry with paired-end 101 bp reads and a 6 bp index read culminating in an average output of 20 million paired-end reads (or 40 million total reads) per sample. Sequence read data were processed and converted to FASTQ format by Illumina BaseSpace analysis software (v2.0.13).
RNAseq data files were trimmed using Trim Galore!. […] Gene expression was assessed and fragments per kilobase of transcript per million (FPKM) values were determined using Stringtie. […]

Experiment [5] has as its system PANC-1. In words: Cell growth inhibition, PANC-1 (MTT). To be noted: PANC-1, 5 days; read-out: EC50, antiproliferative activity. The class given is cell-based. As for the experimental part:
as §1

The test system of experiment [6] is MCF-7 (Tam-R). In words: Cell growth inhibition, tamoxifen-resistant MCF-7. The class given is cell-based. The settings on record: read-out: EC50, antiproliferative activity. The procedure:
as §1

Experiment [7] relates to MDA-PANC-28. Briefly: Cell growth inhibition, MDA-PANC-28 (MTT). The class given is cell-based. The settings on record: MDA-PANC-28, 5 days; read-out: EC50, antiproliferative activity. As for the experimental part:
as §1

Experiment [8] concerns Kasumi-1. Briefly: Cell growth inhibition, Kasumi-1 (XTT). The class given is cell-based. To be noted: Kasumi-1, 5 days; read-out: EC50, antiproliferative activity. The procedure:
as §1
In general terms: Tetrazolium dyes change colour on reduction, which living cells bring about.

Several values for one entry are separate records, joined by “and”; a condition that tells them apart may be missing. Equal values may be shown once. Entries after “also recorded” stand apart in the source; their conditions may differ.

In the case of `CC(C)(C)c1ccc(-c2cc(CNCC3CCNCC3)sc2-c2ccc(C(C)(C)C)cc2)cc1` [Compound 12], the “cellular acetylation of histone H3K9, H3K18 and H3K27” value in experiment [1] is recorded as “significantly inhibit; also recorded: inhibited”. The “inhibition of Myst3” value in experiment [2] (at 20 µM) is recorded as < 10%. In addition, in experiment [2] (at 20 µM), the “inhibition of Myst3 activity (in words)” value is “did not significantly inhibit”. For the same compound, in experiment [2] (read-out: IC50 against Myst3), the concentration for half-maximal inhibition (IC50) (usually the concentration at which inhibition is half-maximal) is > 20000 nM. The 50% effective concentration (EC50) (in general, the midpoint of the concentration-response curve) was 2800 nM and ~3000 nM in experiment [3]; 1000 nM in experiment [5]; 3400 nM in experiment [6]; 2800 nM in experiment [7]; 2600 nM in experiment [8]. Further, in experiment [4] (FIG. 7A), the “normalized enrichment score (NES), genes suppressed by p300 knockdown (GSE31873)” value is reported as -3.32. Also, in experiment [4] (FIG. 7B), the “NES, gene set upregulated by estradiol” value was -9.19. Further, the “NES, genes suppressed by estradiol” value in experiment [4] (FIG. 7C) is given as 7.41.
